The text below walks through data of patent US4908363A, “Imidazole derivatives” (Hoffmann-La Roche Inc., priority 1987, dated 1990).

Data set [1] is described as follows: Acute toxicity, single oral administration. Conditions: mouse, in vivo; single oral administration to mice. An excerpt:
The following Table II contains data concerning the acute toxicity of the above three compounds (LD50 in the case of single oral administration to mice).

The nature of data set [2]: Inflammation-inhibiting activity in established Mycobacterium butyricum arthritis (paw volume, plasma fibrinogen, body weight). The data set is classed as in vivo, male rats. Conditions: by intubation each day over 7 days; for Paw volume change: vehicle 0.46 ± 0.08; for Body weight change: vehicle 13.2 ± 1.8; for Plasma Fibrinogen: vehicle 1233 ± 56. As to the method:
Representative compounds of formula I were tested for their inflammation-inhibiting properties in the animal test described hereinafter:
0.1 ml of a 0.5% (weight/volume) suspension of heat-killed and dried Mycobacterium butyricum in heavy mineral oil, containing 0.2% digitionin, is injected into the base of the tail of male rats (120-140 g). The animals are housed individually and receive feed and water ad libitum. The thus-produced arthritis is allowed to develop without treatment during 21 days. Then on the one hand the body weight of the animals is determined and on the other hand the volumes of their two hind paws (by immersing the paws in a mercury plethysmograph up to the height of the lateral malleolus). Thereupon, the animals are divided into groups each comprising six animals in each case of approximately the same average volumes of the hind paws. The substance to be investigated is then administered to them by intubation each day over a period of 7 days. At the end of the treatment period, body weight and volumes of the hind paws are again determined and the changes over the treatment period is calculated. Subsequently, the animals are killed and plasma samples are removed from them in order to determine the fibrinogen in accordance with Exner et al., 1979 (Amer. J. Clin. Path.) after precipitation with ammonium sulfate.
The results determined for three representative compounds of formula I, in the animal test described hereinbefore, are set forth in the following Table I.

The nature of data set [3]: Edema-inhibiting properties in carrageen pleuritis. In kind it is in vivo, male rats. The settings on record: 1 hour before and 5 hours after carrageen, 24 hours. How it is done: were tested for their edema-inhibiting properties in the animal test described hereinafter:
A pleuritis is produced in male rats (230-250 g), which receive feed and water ad libitum, by the injection of 0.2 ml of a 1% solution of carrageen in sterile, pyrogen-free sodium chloride solution into the right pleural cavity. The substance to be investigated, suspended in an aqueous vehicle (containing 0.5% carboxymethylcellulose, 0.9% sodium chloride, 0.37% Tween 80 and 0.86% benzyl alcohol), or the vehicle alone, are administered by intubation to the animals 1 hour before and 5 hours after the carrageen injection. Twenty-four (24) hours after the carrageen injection, the animals are killed by decapitation, left to bleed out and the pleural cavity is exposed by cutting through the ribs on both sides of the sternum. The exudate is removed from the pleural cavity by means of a pipette and its volume is determined. Thereupon, the pleural cavity is washed once with phosphate-buffered sodium chloride solution containing fetal bovine serum (1:1) and the wash solution is combined with the exudate. The total number of cells in the pleural cavity is determined using a "Coulter Counter" which is calibrated so that red blood corpuscles are not counted. Cell smears on glass plates can be produced directly from the exudate, fixed in methanol and colored for the differential counting of polymorphonuclear leucocytes (PMN) and macrophages; a total of 200 PMN and macrophages can be counted and the results expressed as a percentage of each type of cell present in the pleural exudate.

One may read the LD50 as the dose at which mortality reaches 50%. A low value points to greater toxicity. In data set [1], `Cc1nccn1N=Cc1cc(C(C)(C)C)c(O)c(C(C)(C)C)c1` [B, 1-(4-hydroxy-3,5-di-tert.butylbenzylideneamino)-2-methylimidazole] returned an LD50 of over 1000 mg/kg. Also, in data set [2] (22 μmol/kg), the Paw volume change was -0.77 ± 0.05 mL, the Body weight change is reported as 28.2 ± 1.4 g and the “Plasma Fibrinogen” value was 405 ± 126 mg/dL. Further, in data set [2] (66 μmol/kg), the Paw volume change is -0.84 ± 0.12 mL, the Body weight change was 35.3 ± 1.8 g and the “Plasma Fibrinogen” value is 75 ± 15 mg/dL.
For `CC(C)(C)c1cc(C=Nn2ccnc2)cc(C(C)(C)C)c1O` [C, 1-(4-hydroxy-3,5-di-tert.-butylbenzylideneamino)imidazole], the LD50 in data set [1] is over 1000 mg/kg. Besides, in data set [2] (66 μmol/kg), the Paw volume change is -0.92 ± 0.08 mL, the Body weight change is 31.2 ± 2.0 g and the “Plasma Fibrinogen” value was determined as 544 ± 97 mg/dL.
As for `CC(C)(C)c1cc(CNn2ccnc2)cc(C(C)(C)C)c1O` [Compound A, 1-(4-Hydroxy-3,5-di-tert.butylbenzylamino)imidazole], in data set [3] (30 mg/kg p.o.), the “% Chance compared with controls, Exudate volume” value (“% Chance … Exudate volume” for short) is recorded as -51% and the “% Chance compared with controls, Number of cells” value (from here on “% Chance … of cells”) is -12%. In data set [3] (50 mg/kg p.o.), the “% Chance … Exudate volume” value was -60% and the “% Chance … of cells” value is -14%. In data set [3] (100 mg/kg p.o.), the “% Chance … Exudate volume” value was -68% and the “% Chance … of cells” value is on record as -23%. This compound had an LD50 in data set [1] of over 1000 mg/kg. Also, in data set [2] (66 μmol/kg), the Paw volume change was -0.18 ± 0.08 mL, the Body weight change amounted to 30.5 ± 1.2 g and the “Plasma Fibrinogen” value was found to be 1040 ± 75 mg/dL.
With `Cc1nccn1NCc1cc(C(C)(C)C)c(O)c(C(C)(C)C)c1` [D, 1-(4-hydroxy-3,5-di-tert.-butylbenzylamino)-2-methylimidazole], in data set [3] (30 mg/kg p.o.), the “% Chance … Exudate volume” value is -29% and the “% Chance … of cells” value was -6%. In data set [3] (100 mg/kg p.o.), the “% Chance … Exudate volume” value is reported as -60% and the “% Chance … of cells” value is -22%.
With `CCCc1nccn1NCc1cc(C(C)(C)C)c(O)c(C(C)(C)C)c1` [E, 1-(4-hydroxy-3,5-di-tert.butylbenzylamino)-2-propylimidazole], in data set [3] (30 mg/kg p.o.), the “% Chance … Exudate volume” value was -39% and the “% Chance … of cells” value was “+4%”. For the same compound, in data set [3] (100 mg/kg p.o.), the “% Chance … Exudate volume” value is -73% and the “% Chance … of cells” value is given as -21%.
